# Values of other authors, collected in PMC3738054 (Journal of immunology (Baltimore, Md. : 1950), 2013).
# Test system: cerebral malaria
# Details: oral inhibitor, murine model of cerebral malaria
structure (smiles),measurement,value
c1cc(-c2nc3ccc(OCCCN4CCCC4)cc3o2)ccc1OCCCN1CCCC1 [E6446],efficacy in mitigating inflammatory injury,has shown efficacy
